Data: PubChem BioAssay (NCI)
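Briefly, cells in 96-well plates were exposed to five compound concentrations for 48 h, and endpoints were estimated by linear interpolation. TGI marks complete inhibition of growth.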

Tests used:
Assay in all cases: NCI-60 cell line screen, 48 h
786-0 renal = tested on: 786-0 renal
A498 renal = tested on: A498 renal
A549 NSCLC = tested on: A549 NSCLC
ACHN renal = tested on: ACHN renal
CAKI-1 renal = tested on: CAKI-1 renal
CCRF-CEM leukemia = tested on: CCRF-CEM leukemia
COLO 205 colon = tested on: COLO 205 colon
DLD-1 colon = tested on: DLD-1 colon
DMS 114 small cell lung = tested on: DMS 114 small cell lung
DMS 273 small cell lung = tested on: DMS 273 small cell lung
EKVX NSCLC = tested on: EKVX NSCLC
HCC-2998 colon = tested on: HCC-2998 colon
HCT-116 colon = tested on: HCT-116 colon
HCT-15 colon = tested on: HCT-15 colon
HL-60(TB) leukemia = tested on: HL-60(TB) leukemia
HOP-18 NSCLC = tested on: HOP-18 NSCLC
HOP-62 NSCLC = tested on: HOP-62 NSCLC
HOP-92 NSCLC = tested on: HOP-92 NSCLC
HT29 colon = tested on: HT29 colon
IGROV1 ovarian = tested on: IGROV1 ovarian
K-562 leukemia = tested on: K-562 leukemia
KM12 colon = tested on: KM12 colon
KM20L2 colon = tested on: KM20L2 colon
LOX IMVI melanoma = tested on: LOX IMVI melanoma
LXFL 529 NSCLC = tested on: LXFL 529 NSCLC
M14 melanoma = tested on: M14 melanoma
M19-MEL melanoma = tested on: M19-MEL melanoma
MALME-3M melanoma = tested on: MALME-3M melanoma
MOLT-4 leukemia = tested on: MOLT-4 leukemia
NCI-H226 lung = tested on: NCI-H226 lung
NCI-H23 lung = tested on: NCI-H23 lung
NCI-H460 lung = tested on: NCI-H460 lung
NCI-H522 lung = tested on: NCI-H522 lung
OVCAR-3 ovarian = tested on: OVCAR-3 ovarian
OVCAR-4 ovarian = tested on: OVCAR-4 ovarian
OVCAR-5 ovarian = tested on: OVCAR-5 ovarian
OVCAR-8 ovarian = tested on: OVCAR-8 ovarian
RXF 393 renal = tested on: RXF 393 renal
SF-268 CNS = tested on: SF-268 CNS
SF-295 CNS = tested on: SF-295 CNS
SF-539 CNS = tested on: SF-539 CNS
SK-MEL-2 melanoma = tested on: SK-MEL-2 melanoma
SK-MEL-28 melanoma = tested on: SK-MEL-28 melanoma
SK-MEL-5 melanoma = tested on: SK-MEL-5 melanoma
SK-OV-3 ovarian = tested on: SK-OV-3 ovarian
SN12C renal = tested on: SN12C renal
SNB-19 CNS = tested on: SNB-19 CNS
SNB-75 CNS = tested on: SNB-75 CNS
SNB-78 CNS = tested on: SNB-78 CNS
SR leukemia = tested on: SR leukemia
SW-620 colon = tested on: SW-620 colon
TK-10 renal = tested on: TK-10 renal
U251 CNS = tested on: U251 CNS
UACC-257 melanoma = tested on: UACC-257 melanoma
UACC-62 melanoma = tested on: UACC-62 melanoma
UO-31 renal = tested on: UO-31 renal
RPMI-8226 leukemia = tested on: RPMI-8226 leukemia
RXF-631 renal = tested on: RXF-631 renal
XF 498 CNS = tested on: XF 498 CNS

Measured: TGI

CCOc1ccc(NC(=O)CCc2nnc(SC)o2)cc1
> 100 µM: 786-0 renal | A498 renal | A549 NSCLC | ACHN renal | CAKI-1 renal | CCRF-CEM leukemia | COLO 205 colon | DLD-1 colon | DMS 114 small cell lung | DMS 273 small cell lung | EKVX NSCLC | HCC-2998 colon | HCT-116 colon | HCT-15 colon | HL-60(TB) leukemia | HOP-18 NSCLC | HOP-62 NSCLC | HOP-92 NSCLC | HT29 colon | IGROV1 ovarian | K-562 leukemia | KM12 colon | KM20L2 colon | LOX IMVI melanoma | LXFL 529 NSCLC | M14 melanoma | M19-MEL melanoma | MALME-3M melanoma | MOLT-4 leukemia | NCI-H226 lung | NCI-H23 lung | NCI-H460 lung | NCI-H522 lung | OVCAR-3 ovarian | OVCAR-4 ovarian | OVCAR-5 ovarian | OVCAR-8 ovarian | RXF 393 renal | SF-268 CNS | SF-295 CNS | SF-539 CNS | SK-MEL-2 melanoma | SK-MEL-28 melanoma | SK-MEL-5 melanoma | SK-OV-3 ovarian | SN12C renal | SNB-19 CNS | SNB-75 CNS | SNB-78 CNS | SR leukemia | SW-620 colon | TK-10 renal | U251 CNS | UACC-257 melanoma | UACC-62 melanoma | UO-31 renal

Cc1ccc(NC(=O)C(=O)C(C(=O)/C=C/c2ccccc2)C2OC(=O)c3ccccc32)c(C)c1 (stereo unspecified)
> 100 µM: 786-0 renal | A498 renal | A549 NSCLC | ACHN renal | CAKI-1 renal | CCRF-CEM leukemia | COLO 205 colon | DLD-1 colon | DMS 114 small cell lung | EKVX NSCLC | HCC-2998 colon | HCT-116 colon | HCT-15 colon | HL-60(TB) leukemia | HOP-62 NSCLC | HOP-92 NSCLC | HT29 colon | IGROV1 ovarian | K-562 leukemia | KM12 colon | KM20L2 colon | LOX IMVI melanoma | LXFL 529 NSCLC | M14 melanoma | M19-MEL melanoma | MALME-3M melanoma | MOLT-4 leukemia | NCI-H226 lung | NCI-H23 lung | NCI-H460 lung | NCI-H522 lung | OVCAR-3 ovarian | OVCAR-4 ovarian | OVCAR-5 ovarian | RPMI-8226 leukemia | RXF 393 renal | RXF-631 renal | SF-268 CNS | SF-295 CNS | SF-539 CNS | SK-MEL-28 melanoma | SK-MEL-5 melanoma | SK-OV-3 ovarian | SN12C renal | SNB-19 CNS | SNB-75 CNS | SNB-78 CNS | SR leukemia | SW-620 colon | TK-10 renal | U251 CNS | UACC-257 melanoma | UACC-62 melanoma | UO-31 renal | XF 498 CNS
